The results in this text go back to patent US12527779B2, “Prostaglandin E2 (PGE2) EP4 receptor antagonists” (Domain Therapeutics, priority 2019, dated 2026).

In this assay the target is T1, human EP4 (hEP4) receptor (Homo sapiens, UniProt P35408).
T1 construct: expressed in transfected cells; host or cells: HEK-293 T cells, transient co-transfection with polyethylenimine
As to the kind of experiment: In vitro human EP4 functional antagonist activity using BRET biosensors (cAMP EPAC biosensor, TCS2510 stimulation). The class given is cell-based. As to conditions: antagonist activity vs EC60 TCS2510, hEP4 in HEK-293 T cells. As for the experimental part:
Examples of the present invention were tested successively for their agonist and antagonist activities on human EP4 (hEP4) receptor transiently over-expressed in HEK-293 T cells. […] The assay used to measure compound activity is based on the BRET technology. The unimolecular cAMP biosensor used to detect intracellular cAMP levels following GPCR stimulation consists of the EPAC protein fused to N- and C-terminal of Luciferase and GFP respectively.
Cell Culture and Transfection: HEK-293 T cells are maintained in Dulbecco's Modified Eagle's Medium supplemented with 10% Foetal Calf Serum, 1% Penicillin/Streptomycin at 37° C./5% CO2. Cells are co-transfected using polyethylenimine (25 kDa linear) with two DNA plasmids encoding hEP4, EPAC fused to luciferase (BRET donor) and to GFP (BRET acceptor). After transfection, cells are cultured (40,000 cells per well) for 48 h at 37° C./5% CO2.
BRET assay: Receptor activity is detected by changes in BRET signal. On the day of the assay, cells are rinsed and incubated in assay buffer (1.8 mM CaCl2, 1 mM MgCl2, 2.7 mM KCl, 137 mM NaCl, 0.4 mM NaH2PO4, 5.5 mM D-Glucose, 11.9 mM NaHCO3, 25 mM Hepes). Then, plates are equilibrated 1 h at 22° C. before adding compounds. Compounds and luciferase substrate are added to the cells using an automated device (Freedom Evo®, Tecan) and BRET readings are collected on EnVision (PerkinElmer) with specific filters (410 nm BW 80 nm, 515 nm BW 30 nm). Agonist and antagonist activities of compounds are consecutively evaluated on the same cell plate. Agonist activity is first measured after 5 min incubation with compound alone on the cells. Then, cells are stimulated by an EC60 TCS2510 concentration and luminescence is recorded for additional 10 min. EC60 TCS2510 concentration is the concentration giving 60% of the maximal TCS2510 response. Agonist or antagonist activities are evaluated in comparison to basal signals evoked by assay buffer or EC60 TCS2510 alone, respectively.
For IC50 determination, a dose-response test is performed using 10 concentrations (ranging over 4.5 logs) of each compound. Dose-response curves are fitted using the sigmoidal dose-response (variable slope) analysis in GraphPad Prism software (GraphPad Software) and IC50 of antagonist activity is calculated. Dose-response experiments are performed in duplicate, in two independent experiments. IC50 values are categorized as following: A: IC50<0.1 μM; B: IC50<1 μM.

Structures can show the parent of a compound that is named as a salt.

T1 sequence (P35408 whole entry): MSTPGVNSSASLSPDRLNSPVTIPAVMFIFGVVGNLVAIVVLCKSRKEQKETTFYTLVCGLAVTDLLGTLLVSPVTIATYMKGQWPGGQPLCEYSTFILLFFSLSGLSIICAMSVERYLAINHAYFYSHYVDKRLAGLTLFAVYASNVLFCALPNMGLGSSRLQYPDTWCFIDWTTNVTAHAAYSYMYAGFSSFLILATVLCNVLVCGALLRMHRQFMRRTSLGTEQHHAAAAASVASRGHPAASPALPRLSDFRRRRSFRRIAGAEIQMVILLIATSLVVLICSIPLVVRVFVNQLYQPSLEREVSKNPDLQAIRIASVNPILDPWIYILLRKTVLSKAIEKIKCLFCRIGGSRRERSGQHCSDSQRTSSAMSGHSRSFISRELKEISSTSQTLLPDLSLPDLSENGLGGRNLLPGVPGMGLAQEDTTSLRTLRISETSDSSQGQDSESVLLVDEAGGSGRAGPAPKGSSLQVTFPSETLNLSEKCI

As usually defined, the IC50 is the concentration that gives 50% inhibition. A high value points to lower potency. Turning to `C[C@H](NC(=O)C1(c2ccc(OCc3cccnc3)cc2)CCOCC1)c1ccc(C(=O)O)cc1` [Example 96, 4-[(1S)-1-[[4-[4-(3-Pyridylmethoxy)phenyl]tetrahydropyran-4-carbonyl]amino]ethyl]benzoic acid], the half-inhibitory concentration (IC50) is < 1 µM.

As to `C[C@H](NC(=O)C1(N2CCC[C@H](Oc3cccc(Cl)c3)C2)CCOCC1)c1ccc(C(=O)O)cc1` [Example 134, 4-[(1S)-1-[[4-[(3S)-3-(3-Chlorophenoxy)-1-piperidyl]tetrahydropyran-4-carbonyl]amino]ethyl]benzoic acid, hydrochloride], the IC50 is < 1 µM.

For the compound `C[C@H](NC(=O)C1(N2CC[C@@H](Oc3cccc(C(F)(F)F)c3)C2)CCOCC1)c1cccc(Cl)c1` [Example 191, N—((S)-1-(3-Chlorophenyl)ethyl)-4-((R)-3-(3-(trifluoromethyl)phenoxy)pyrrolidin-1-yl)tetrahydro-2H-pyran-4-carboxamide, hydrochloride], the IC50 was < 1 µM.

As for `C[C@H](NC(=O)C1(c2ccc(OCCC3CCCCC3)cn2)CCOCC1)c1ccc(C(=O)O)cc1` [Example 120, 4-[(1S)-1-[[4-[5-(2-Cyclohexylethoxy)-2-pyridyl]tetrahydropyran-4-carbonyl]amino]ethyl]benzoic acid], the IC50 was < 1 µM.

Consider `CN(CCOc1cccc(Cl)c1)C1(C(=O)NC2(c3ccc(C(=O)O)cc3)CC2)CCOC1` (stereo not shown) [Example 77, 4-[1-[[3-[2-(3-Chlorophenoxy)ethyl-methyl-amino]tetrahydrofuran-3-carbonyl]amino]cyclopropyl]benzoic acid, hydrochloride], for which the IC50 is < 0.1 µM.

With `C[C@H](NC(=O)C1(c2ccc(OCCC3CCCCC3)nc2)CCOCC1)c1ccc(C(=O)O)cc1` [Example 122, 4-[(1S)-1-[[4-[6-(2-Cyclohexylethoxy)-3-pyridyl]tetrahydropyran-4-carbonyl]amino]ethyl]benzoic acid], the IC50 was < 1 µM.

On to `Cc1ccccc1OCCN(C)C1(C(=O)NC2(c3ccc(C(=O)O)cc3)CC2)CCOCC1` [Example 36, 4-[1-[[4-[2-(2-Methylphenoxy)ethyl-methyl-amino]tetrahydropyran-4-carbonyl]amino]cyclopropyl]benzoic acid, hydrochloride], for which the IC50 is < 0.1 µM.

`C[C@H](NC(=O)C(C)(C)N1CC[C@@H](COc2cccc(Cl)c2)C1)c1ccc(C(=O)O)cc1` [Example 209, 4-((S)-1-(2-((R)-3-((3-Chlorophenoxy)methyl)pyrrolidin-1-yl)-2-methylpropanamido)ethyl)benzoic acid]: the IC50 was < 0.1 µM.

`COc1ccccc1OCCN(C)C1(C(=O)NC2(c3ccc(C(=O)O)cc3)CC2)CCOCC1` [Example 39, 4-[1-[[4-[2-(2-Methoxyphenoxy)ethyl-methyl-amino]tetrahydropyran-4-carbonyl]amino]cyclopropyl]benzoic acid, hydrochloride]: the IC50 is < 1 µM.

As to `C[C@H](NC(=O)C1(N(C)CCOc2ccccc2)CCOCC1)c1ccc(C(=O)N(C)C)cc1` [Example 5, N-[(1S)-1-[4-(Dimethylcarbamoyl)phenyl]ethyl]-4-[methyl(2-phenoxyethyl)amino]tetrahydropyran-4-carboxamide], the IC50 was < 1 µM.

With `CN(CCOc1ccccc1)C1(C(=O)NC2(c3ccc(C(=O)O)cc3F)CC2)CCOCC1` [Example 50, 3-Fluoro-4-[1-[[4-[methyl(2-phenoxyethyl)amino]tetrahydropyran-4-carbonyl]amino]cyclopropyl]benzoic acid, hydrochloride], the IC50 is < 0.1 µM.

With `Cc1cccc(OCCNC2(C(=O)N[C@@H](C)c3ccc(C(=O)O)cc3)CCOCC2)c1` [Example 14, 4-[(1S)-1-[[4-[2-(3-Methylphenoxy)ethylamino]tetrahydropyran-4-carbonyl]amino]ethyl]benzoic acid, hydrochloride], the IC50 is < 0.1 µM.

For the compound `C[C@H](NC(=O)C1(NCCOc2ccccc2)CCC1)c1ccc(C(=O)O)cc1` [Example 69, 4-[(1S)-1-[[1-(2-Phenoxyethylamino)cyclobutanecarbonyl]amino]ethyl]benzoic acid, hydrochloride], the IC50 is < 1 µM.
